Where two headings read alike, the source gives them in different places.
Assays:
LXRα = target: T1, LXRα (Homo sapiens, UniProt Q13133); details: cited from earlier work
T1 sequence (Q13133 1-447): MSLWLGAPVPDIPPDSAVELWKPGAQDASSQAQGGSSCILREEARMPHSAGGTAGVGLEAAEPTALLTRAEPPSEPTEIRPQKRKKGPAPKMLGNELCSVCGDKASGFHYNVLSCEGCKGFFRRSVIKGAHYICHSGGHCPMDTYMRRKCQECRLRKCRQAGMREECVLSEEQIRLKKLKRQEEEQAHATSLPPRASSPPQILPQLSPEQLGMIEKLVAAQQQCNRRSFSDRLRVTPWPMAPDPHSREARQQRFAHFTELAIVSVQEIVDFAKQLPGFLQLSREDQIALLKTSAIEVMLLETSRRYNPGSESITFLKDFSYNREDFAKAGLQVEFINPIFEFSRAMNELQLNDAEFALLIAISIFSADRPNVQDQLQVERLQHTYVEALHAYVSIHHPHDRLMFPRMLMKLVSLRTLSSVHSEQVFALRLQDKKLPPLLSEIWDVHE

HMG CoA reductase = target: T2, HMG CoA reductase (Homo sapiens, UniProt P04035); assay: Ubiquitination of reductase in a permeabilized cell system; assay type: cell-based; details: permeabilized cells; data not shown
T2 sequence (P04035 1-888): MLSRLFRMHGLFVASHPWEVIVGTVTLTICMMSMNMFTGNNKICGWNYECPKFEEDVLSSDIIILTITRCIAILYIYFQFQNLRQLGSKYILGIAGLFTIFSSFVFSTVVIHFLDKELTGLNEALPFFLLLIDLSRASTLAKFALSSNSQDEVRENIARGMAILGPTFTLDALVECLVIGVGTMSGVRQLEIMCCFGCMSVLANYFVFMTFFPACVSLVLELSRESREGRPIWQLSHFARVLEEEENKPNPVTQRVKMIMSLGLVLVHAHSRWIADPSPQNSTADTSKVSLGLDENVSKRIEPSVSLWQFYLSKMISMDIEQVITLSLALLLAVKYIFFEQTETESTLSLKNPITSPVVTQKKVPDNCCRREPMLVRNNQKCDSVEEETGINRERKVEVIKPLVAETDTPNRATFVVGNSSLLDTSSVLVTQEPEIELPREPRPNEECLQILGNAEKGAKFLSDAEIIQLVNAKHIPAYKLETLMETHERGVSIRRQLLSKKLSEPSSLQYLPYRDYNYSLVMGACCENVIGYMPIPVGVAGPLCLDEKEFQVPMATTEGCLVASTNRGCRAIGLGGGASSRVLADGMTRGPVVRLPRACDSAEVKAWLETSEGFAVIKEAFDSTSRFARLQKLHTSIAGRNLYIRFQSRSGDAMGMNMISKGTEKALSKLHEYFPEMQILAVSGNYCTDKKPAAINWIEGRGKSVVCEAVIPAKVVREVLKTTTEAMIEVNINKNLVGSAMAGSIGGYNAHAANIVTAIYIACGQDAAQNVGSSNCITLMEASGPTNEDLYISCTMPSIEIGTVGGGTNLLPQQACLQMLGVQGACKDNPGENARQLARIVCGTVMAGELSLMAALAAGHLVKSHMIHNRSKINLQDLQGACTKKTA
Description: It was determined whether intermediates in cholesterol synthesis promote ubiquitination of reductase in a permeabilized cell system. […] The methyl and side chain hydroxyl groups of 27-hydroxylanosterol appear to act synergistically in promoting reductase ubiquitination.

[1] = target: T3, Recombinant human P450 27A1 (Homo sapiens, UniProt Q02318); assay: P450 27A1 enzyme incubation: rate of 27-diol formation (GLC-MS); assay type: biochemical; details: for Substrate for the enzyme CYP 27A1: human enzyme expressed in E. Coli; for Synthesis rate of the 27-diol metabolite: 25 nmol substrate, 37° C.; for Total 27-diol metabolite: total over 10 min
T3 construct: made in house; host or cells: E. coli
T3 sequence (Q02318 34-531): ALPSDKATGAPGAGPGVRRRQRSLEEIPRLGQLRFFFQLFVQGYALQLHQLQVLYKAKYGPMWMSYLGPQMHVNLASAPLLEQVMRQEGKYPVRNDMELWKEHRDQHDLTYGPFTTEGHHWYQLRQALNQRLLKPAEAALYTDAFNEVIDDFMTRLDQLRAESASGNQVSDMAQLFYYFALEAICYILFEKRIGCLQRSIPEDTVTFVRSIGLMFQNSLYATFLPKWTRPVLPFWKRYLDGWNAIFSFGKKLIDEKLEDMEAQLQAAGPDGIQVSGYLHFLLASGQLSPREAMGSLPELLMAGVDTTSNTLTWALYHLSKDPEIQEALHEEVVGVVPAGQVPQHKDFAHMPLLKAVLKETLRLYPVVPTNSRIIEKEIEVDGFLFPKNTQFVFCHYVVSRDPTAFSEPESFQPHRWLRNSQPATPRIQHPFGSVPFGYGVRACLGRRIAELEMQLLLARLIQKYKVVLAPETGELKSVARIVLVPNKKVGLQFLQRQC
From the text: (§1) Recombinant human P450 27A1, recombinant bovine adrenodoxin (Adx), and recombinant bovine adrenodoxin reductase (Adr) were expressed and purified as described previously (7). P450 27A1 with a heme content of 17.6 nmol/mg protein and showing a single band upon silver-stained SDS-polyacrylamide gel electrophoresis, and Adr and Adx with the spectral purity indexes of 7.5 (A278/A450) and 0.95 (A414/A276), respectively, were used for enzymatic assays. Adr and Adx are considered to be pure with the spectral purity indexes beginning from 7.5 for Adr and 0.86 for Adx (8).
(§2) P450 27A1 activities using cholesterol, desmosterol, zymosterol, lanosterol, or […] as the substrate were assayed in 40 mM phosphate buffer, pH 7.4. Stock solutions (10 mM) of cholesterol, desmosterol, zymosterol, and […] were prepared using 45% aqueous solution of 2-hydroxypropyl-β-cyclodextrin. Reaction mixtures (1 ml) contained 0.065 nmol of P450 27A1, 0.33 nmol of Adr, 1.3 nmol of Adx, and 25 nmol of substrate, Lanosterol was dissolved in methyl-β-cyclodextrin (Sigma, St. Louis, Mo.) and the reaction mixture contained 25 nmol substrate, 0.3 nmol enzyme, 1.5 nmol Adr and 6.5 nmol Adx. Enzymatic assays, initiated by addition of 1 μmol of NADPH, were carried out at 37° C. for different time intervals, and were terminated by adding 1 ml of either CH2Cl2 or CH2Cl2 that contained coprostanol. After extraction, the steroid were taken to dryness. In some studies deuterated 27-hydroxycholesterol (9) was used as an internal standard.
(§3) For zymosterol and desmosterol, the rate of diol formation was determined at 2.5, 5.0, and 10 min by removing aliquots and adding deuterated 27-hydroxycholesterol as an internal standard. The m/z 454 area was then compared with the m/z=462 area at each time interval. Because authentic standards are not available for constructing standard curves, it was assumed that the area/mass ratios for deuterated 27-hydroxycholesterol, zymosterol and desmosterol were equal. A second approach was to quantify the rate of disappearance of substrate using coprostanol added at the end of the incubation period. In all studies a parallel incubation with the omission of adrenodoxin reductase served as a control.
(§4) The trimethylsilyl ethers were prepared using MSTFA, (Pierce, Rockford, Ill.). Methyl esters were prepared using freshly distilled diazomethane. GLC-MS analyses were done on a Shimidzu GLC 17A instrument attached to a Model 5000 mass detector. Samples were injected in the split-mode onto a ZB-1701, 30 m×0.25 mm×0.15 μm capillary column (Phenomenex, Torrance, Calif.) and temperature programming at 1° C. beginning at 240° C.

[2] = test system: human retinal pigment epithelial cells (ARPE19); assay type: cell-based
From the text: We undertook to determine the effect of 27-hydroxylation of 7-ketocholesterol on the cytotoxic effect of 7-ketocholesterol. To test the general hypothesis that 27-hydroxylation of steroids markedly alters their biologic activity, the 27-hydroxy derivative of 7-ketocholesterol was synthesized from 27-hydrocholesterol using modifications of a previously published method (11). Its biologic effects on human retinal pigment epithelial cells (ARPE19) was compared to that of 7-ketocholesterol.
By contrast, retinal pigment epithelial cells maintained in the presence of 27-hydroxy-7-ketocholesterol had only a 10% reduction in viability compared to control.

[3] = target: T3, Recombinant human P450 27A1; assay: P450 27A1 enzyme incubation: disappearance of substrate, coprostanol internal standard; assay type: biochemical
From the text: as §1, §2, §3, §4
TABLE 3 indicates the percent of zymosterol, desmosterol, and lanosterol that was metabolized compared with that of cholesterol and 7-dehydrocholesterol using coprostanol (m/z=370) as an internal standard and (−) adrenodoxin reductase as a control.

LXRβ = target: T4, LXRβ (Homo sapiens, UniProt P55055); details: cited from earlier work
T4 sequence (P55055 1-460): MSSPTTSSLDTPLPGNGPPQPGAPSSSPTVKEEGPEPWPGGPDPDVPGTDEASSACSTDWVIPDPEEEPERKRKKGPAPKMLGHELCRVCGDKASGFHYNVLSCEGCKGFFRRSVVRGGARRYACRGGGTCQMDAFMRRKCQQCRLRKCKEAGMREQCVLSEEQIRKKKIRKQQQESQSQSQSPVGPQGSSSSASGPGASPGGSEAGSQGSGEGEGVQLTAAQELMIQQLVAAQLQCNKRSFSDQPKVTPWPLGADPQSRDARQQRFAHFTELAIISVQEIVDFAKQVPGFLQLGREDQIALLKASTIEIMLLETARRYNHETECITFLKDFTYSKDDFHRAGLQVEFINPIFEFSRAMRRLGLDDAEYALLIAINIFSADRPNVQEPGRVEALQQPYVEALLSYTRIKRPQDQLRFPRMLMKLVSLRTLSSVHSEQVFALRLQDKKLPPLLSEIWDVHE

[4] = Adrenodoxin reductase (−) control incubation, 20 min
[5] = Adrenodoxin reductase +, 20 min
[6] = disappearance of substrate at 20 min versus incubation without adrenodoxin reductase

## CC(CO)CCC[C@@H](C)[C@H]1CC[C@H]2C3=CC=C4C[C@@H](O)CC[C@]4(C)[C@H]3CC[C@]12C (some centres unmarked) [27-hydroxy-7-dehydrocholesterol]
LXRα
  Expression of the nuclear receptor LXRα: specifically upregulate

## CC(C)=CCC[C@@H](C)[C@H]1CC[C@@]2(C)C3=C(CC[C@]12C)[C@@]1(C)CC[C@H](O)C(C)(C)[C@@H]1CC3 [Lanosterol]
HMG CoA reductase
  Stimulation of ubiquitination of reductase: potently stimulate ubiquitination of reductase
[1]
  Substrate for the enzyme CYP 27A1: substrates for the enzyme

## CC(C)CCC[C@@H](C)[C@H]1CC[C@H]2[C@@H]3C(=O)C=C4C[C@@H](O)CC[C@]4(C)[C@H]3CC[C@]12C [7-ketocholesterol]
[2]; 25 μmolar
  Viability of retinal pigment epithelial cells: 68%
[2]; 50 μmolar
  Viability of retinal pigment epithelial cells: 20%

## C[C@H](CCCC(C)(C)O)[C@H]1CC[C@H]2[C@@H]3C(=O)C=C4C[C@@H](O)CC[C@]4(C)[C@H]3CC[C@]12C [7-keto-25-hydroxycholesterol]
HMG CoA reductase
  Stimulation of ubiquitination of reductase: stimulated ubiquitination of reductase

## CC(=CCCC(C)C1CCC2(C)C3=C(CCC12C)C1(C)CCC(O)C(C)(C)C1CC3)CO (centres unmarked) [27-hydroxylanosterol]
HMG CoA reductase
  Concentration giving approximately equivalent levels of reductase ubiquitination as 25 μM lanosterol: 2.5 µM
  Stimulation of ubiquitination of reductase: strongly stimulated reductase ubiquitination

## CC(C)CCC[C@@H](C)[C@H]1CC[C@H]2[C@@H]3CC=C4C[C@@H](O)CC[C@]4(C)[C@H]3CC[C@]12C [Cholesterol]
HMG CoA reductase
  Stimulation of ubiquitination of reductase: not
[3]; human, 20 min, 25 µM, pH 7.4
  Percent metabolized: 22%
[1]; 0-2.5 min
  Synthesis rate of the 27-diol metabolite: 80 ng/min
[1]; 2.5-5.0 min
  Synthesis rate of the 27-diol metabolite: 75 ng/min
[1]; 5.0-10 min
  Synthesis rate of the 27-diol metabolite: 53 ng/min
[1]
  Total 27-diol metabolite: 534 ng/10 min

## C[C@H](CCCC(C)(C)O)[C@H]1CC[C@H]2[C@@H]3CC=C4C[C@@H](O)CC[C@]4(C)[C@H]3CC[C@]12C [25-hydroxycholesterol]
HMG CoA reductase
  Stimulation of ubiquitination of reductase: stimulated ubiquitination of reductase

## CC(C)=CCC[C@@H](C)[C@H]1CC[C@H]2C3=C(CC[C@]12C)[C@@]1(C)CC[C@H](O)C[C@@H]1CC3 [Zymosterol]
[1]; 0-2.5 min
  Synthesis rate of the 27-diol metabolite: 9 ng/min
[1]; 2.5-5.0 min
  Synthesis rate of the 27-diol metabolite: 14 ng/min
[1]; 5.0-10 min
  Synthesis rate of the 27-diol metabolite: 10 ng/min
[1]
  Substrate for the enzyme CYP 27A1: substrates for the enzyme
  Total 27-diol metabolite: 97 ng/10 min

## CC(C)=CCC[C@@H](C)[C@H]1CC[C@H]2[C@@H]3CC=C4C[C@@H](O)CC[C@]4(C)[C@H]3CC[C@]12C [Desmosterol]
[3]; [4]
  Sterol/int std ratio: 0.12
[3]; [5]
  Sterol/int std ratio: 0.09
[3]; [6]
  Percent metabolized: 25%
[1]; 0-2.5 min
  Synthesis rate of the 27-diol metabolite: 3 ng/min
[1]; 2.5-5.0 min
  Synthesis rate of the 27-diol metabolite: 8 ng/min
[1]; 5.0-10 min
  Synthesis rate of the 27-diol metabolite: 9 ng/min
[1]
  Substrate for the enzyme CYP 27A1: substrates for the enzyme
  Total 27-diol metabolite: 85 ng/10 min

## CC(CO)CCC[C@@H](C)[C@H]1CC[C@H]2[C@@H]3CC=C4C[C@@H](O)CC[C@]4(C)[C@H]3CC[C@]12C (some centres unmarked) [27-hydroxycholesterol]
LXRα
  Expression of the nuclear receptor LXRα: upregulates
HMG CoA reductase
  Stimulation of ubiquitination of reductase: stimulated ubiquitination of reductase
LXRβ
  Expression of the nuclear receptor LXRβ: upregulates

## CC(C)CCC[C@@H](C)[C@H]1CC[C@H]2C3=CC=C4C[C@@H](O)CC[C@]4(C)[C@H]3CC[C@]12C [7-Dehydrocholesterol]
[3]; [4]
  Sterol/int std ratio: 0.95
[3]; [5]
  Sterol/int std ratio: 0.65
[3]; [6]
  Percent metabolized: 32%
[1]; 0-2.5 min
  Synthesis rate of the 27-diol metabolite: 24 ng/min
[1]; 2.5-5.0 min
  Synthesis rate of the 27-diol metabolite: 54 ng/min
[1]; 5.0-10 min
  Synthesis rate of the 27-diol metabolite: 11 ng/min
[1]
  Total 27-diol metabolite: 107 ng/10 min

From patent publication US8741812B2, “Class of sterol ligands and their uses in regulation of cholesterol and gene expression” (New York University, priority 2004, dated 2014)
